Tests used:
DBH [1] = biological target: T1, DBH (Homo sapiens, UniProt P09172); assay: in vitro DBH inhibition: conversion of tyramine to octopamine in the presence of DBH, absorbance at 330 nm; format: biochemical
T1 sequence (P09172 1-617): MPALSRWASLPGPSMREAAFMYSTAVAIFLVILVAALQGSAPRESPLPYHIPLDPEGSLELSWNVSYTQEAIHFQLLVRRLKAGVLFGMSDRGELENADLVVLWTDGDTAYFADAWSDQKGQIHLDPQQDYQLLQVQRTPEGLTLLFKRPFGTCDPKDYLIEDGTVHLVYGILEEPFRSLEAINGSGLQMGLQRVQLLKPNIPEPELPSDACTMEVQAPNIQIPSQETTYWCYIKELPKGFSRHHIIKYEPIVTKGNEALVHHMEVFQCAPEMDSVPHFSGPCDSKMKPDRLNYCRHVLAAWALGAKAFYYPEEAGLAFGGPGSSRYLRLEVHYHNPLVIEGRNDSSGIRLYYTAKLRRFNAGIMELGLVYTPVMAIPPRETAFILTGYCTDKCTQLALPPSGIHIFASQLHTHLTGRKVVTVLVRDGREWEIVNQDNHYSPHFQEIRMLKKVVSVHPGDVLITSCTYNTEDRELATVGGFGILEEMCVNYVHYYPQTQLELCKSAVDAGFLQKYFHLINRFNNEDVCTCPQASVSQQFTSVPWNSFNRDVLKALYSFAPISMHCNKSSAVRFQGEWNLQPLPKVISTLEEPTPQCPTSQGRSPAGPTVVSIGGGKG
Procedure: Octopamine was assayed following sodium periodate oxidation to p-hydroxybenzaldehyde by measuring spectrophotometric absorbance at 330 nm. […] Melting points (mp) are given in °C. […]

[2] = study comparing effects on blood pressure of hydroxy compounds and their methoxy analogues; format: in vivo; settings: for blood pressure reductions: equivalent doses of hydroxy compound and methoxy analogue
Text: In a study conducted to compare the effects on blood pressure of compounds wherein Y is -OH, X is 3-F or 3,5-F₂ and n is 1 to their Y is -OCH₃ analogues, the maximum blood pressure reduction observed after administration of the hydroxy compound in which X is 3-F was 18%, whereas one-half the dose of its methoxy analogue produced a 35% blood pressure reduction. Also, equivalent doses of the compound in which Y is -OH, X is 3,5-F₂, and n is 1 and its Y is -OCH₃ analogue produced, respectively, 20% and 35% blood pressure reductions.

[3] = tested on: peripheral dopamine and norepinephrine levels; assay: effects on peripheral dopamine and norepinephrine levels (procedure of DaPrada and Zürcher); format: in vivo, Spontaneously hypertensive rats
Procedure: Spontaneously hypertensive rats were dosed twice, the second dose being about 18 hr after the first, and were sacrificed about 2 hr after the second dose. […] In Table II, R= -H, Y= -OH and n=1; in Table II A, R= -H, Y= -OCH₃, and n=1.

DBH [4] = biological target: T1, DBH; settings: reported by Runti et al.; cited from earlier work

Structure (SMILES): COc1ccc(Cn2ccnc2S)cc1F [Example 5, 1-(3-Fluoro-4-methoxybenzyl)-2-mercaptoimidazole]
- inhibition at 100 µM (DBH [1]; at 10⁻⁴ molar concentration): 67%
- blood pressure reduction ([2]; one-half the dose of the hydroxy compound in which X is 3-F): 35%

Structure (SMILES): COc1c(F)cc(Cn2ccnc2S)cc1F [Example 6, 1-(3,5-Difluoro-4-methoxybenzyl)-2-mercaptoimidazole]
- DA/NE Ratio ([3]; Table IIA (R= -H, Y= -OCH₃, n=1), dose not given): .204^(1)
- DA ([3]; Table IIA (R= -H, Y= -OCH₃, n=1), dose not given, dosed twice, sacrificed about 2 hr after second dose): 1.178 ± .087 µg/g
- blood pressure reductions ([2]; dose not given): 35%

Structure (SMILES): Oc1c(F)cc(Cn2ccnc2S)cc1F [n=1, X=3,5-F₂, Y=OH, R=H]
- DA/NE Ratio ([3]; Table II (for X= compounds: R= -H, Y= -OH, n=1), 50 mg/kg, dosed twice): .0824 .0128^(2)
- DA (µg/g) ([3]; Table II (for X= compounds: R= -H, Y= -OH, n=1), 50 mg/kg, dosed twice, sacrificed about 2 hr after second dose): .708 .068^(1) µg/g
- blood pressure reductions ([2]; dose not given): 20%

Structure (SMILES): Oc1ccc(Cn2ccnc2S)cc1F [n=1, X=3-F, Y=OH, R=H]
- IC50 (DBH [1]; molar concentration of compound at which DBH activity was halved, read-out: IC₅₀): 1400 nM
- maximum blood pressure reduction ([2]; after administration of the hydroxy compound, dose not given): 18%

Structure (SMILES): O=C(O)c1ccc(Cc2ccc(O)cc2)cn1 [phenypicolinic acid]
- inhibitory activity relative to fusaric acid (DBH [4]): twice the inhibitory activity of fusaric acid

Reference: EP0260814B1, “Dopamine-Beta-hydroxylase inhibitors” (SMITHKLINE BEECHAM CORPORATION, priority 1986, dated 1988)
